Here are results for 2 sequences from paper doi:10.1101/2024.07.10.602890, “H105A peptide eye drops promote photoreceptor survival in murine and human models of retinal degeneration” (bioRxiv, 2024).

The target in this assay is T1, recombinant human PEDF-R[1–288] (Homo sapiens, UniProt Q96AD5).
T1 construct: SUMOstar (N); His tag (implied by HisTrap purification; part of the pE-SUMOstar vector) (N); TwinStrep (C); made in house; host or cells: Escherichia coli Rosetta(DE3), co-transformed with pGro7 (groES-groEL)
T1 sequence (Q96AD5 1-288): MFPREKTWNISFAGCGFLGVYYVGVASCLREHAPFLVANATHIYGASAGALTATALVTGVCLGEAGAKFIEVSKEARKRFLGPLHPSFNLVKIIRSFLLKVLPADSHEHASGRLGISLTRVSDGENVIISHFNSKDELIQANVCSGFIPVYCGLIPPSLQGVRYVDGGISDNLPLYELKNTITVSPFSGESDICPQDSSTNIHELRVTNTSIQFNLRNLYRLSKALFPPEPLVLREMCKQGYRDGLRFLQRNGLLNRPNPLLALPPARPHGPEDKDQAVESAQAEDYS
The assay can be described thus: Phospholipase A2 (PLA2) activity assay of PEDF-R with peptides. The assay is classed as biochemical. The settings on record: purified recombinant PEDF-R[1–288] 60 nM; peptides preincubated 30 min at room temperature; EnzChek PLA2 kit; six replicate reactions. The text has this:
Fig. 1: Penetration and Bioavailability of PEDF Peptides 17-mer, H105A, and R99A Delivered via Eye Drops in Mouse Retinas (A) Peptide mapping and sequence. Tertiary structure of human PEDF highlighting the small peptide region with neurotrophic activity (17-mer) in blue (top). Primary structure of human PEDF showing the location of the 17-mer region (middle). Sequences of the 17-mer peptide and its variants, H105A and R99A (bottom). (B) In vivo detection of peptides. Fundus micrographs showing fluorescence from Alexa Fluor 488-labeled 17-mer, H105A, and R99A peptides in the eyes of C57Bl/6J mice at P21 days after eye drop administration of 5 μl of peptide at 1 mg/ml (left). […] Quantification of fluorescence intensity over time post-administration (right). […] (C) Quantification of peptide in retinas. […] The amount of peptide was quantified from the fluorescence in retinal extracts using standard curves (Fig. S6A). […] (D) Retinal cross-sections showing fluorescence distribution in the photoreceptor layer 1 hour after applying eye drops as in Panel B. Representative images for labeled 17-mer, H105A, and R99A peptides are shown, with magnified areas of 17-mer and H105A indicated by dotted rectangles. […] (F) Effects of 17-mer, H105A, and R99A peptides on the PLA2 activity of PEDF-R. Peptides were preincubated with recombinant human PEDF-R[1–288] for 30 min, and PLA2 activity was measured. […]

Ends that are not written are not given here.

Turning to QRTESIIHRALYYDLIS [17-mer], the “stimulation of PLA2 activity of PEDF-R” value is “capable of stimulating its PLA2 activity”.
For QRTESIIARALYYDLIS [H105A] the value was “capable of stimulating its PLA2 activity”.
